Data as given in patent publication US6075029A, “Xanthine modulators of metabolism of cellular P-450” (Cell Therapeutics, Inc., priority 1998, dated 2000).

What was measured:
[1] = target: T1, P-4501A2 (Homo sapiens, UniProt P05177); test: Inhibition of P-450 mediated caffeine metabolism to paraxanthine in human liver microsomes; conditions: for inhibition of P-450-mediated caffeine metabolism (in words): human liver microsomes, summary of Table 1; for activity at 0 h, 100 µM / activity at 5 min, 100 µM / activity at 20 min, 100 µM: human
T1 sequence (P05177 1-516): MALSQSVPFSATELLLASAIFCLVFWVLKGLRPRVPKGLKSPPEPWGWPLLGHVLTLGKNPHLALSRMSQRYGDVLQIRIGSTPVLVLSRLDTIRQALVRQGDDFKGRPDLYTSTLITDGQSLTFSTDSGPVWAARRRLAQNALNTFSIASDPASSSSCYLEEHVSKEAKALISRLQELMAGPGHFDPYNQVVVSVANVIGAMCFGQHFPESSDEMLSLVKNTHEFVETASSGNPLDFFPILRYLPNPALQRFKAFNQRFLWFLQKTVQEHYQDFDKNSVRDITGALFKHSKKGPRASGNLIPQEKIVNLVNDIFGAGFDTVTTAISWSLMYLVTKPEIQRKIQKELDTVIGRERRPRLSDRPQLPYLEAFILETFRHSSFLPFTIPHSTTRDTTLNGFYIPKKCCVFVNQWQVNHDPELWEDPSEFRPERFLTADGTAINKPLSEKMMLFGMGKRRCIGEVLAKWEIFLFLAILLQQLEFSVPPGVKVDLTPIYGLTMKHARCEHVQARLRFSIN
Experimental: The model system directly measures inhibition of P-4501A2-mediated metabolism in the physiological environment of human liver microsomes. Measurement of drug metabolism in a microsome system is directly predictive of liver metabolism in vivo. Thus, microsome data can be used to estimate the in vivo circulating half-life of compounds that are primarily metabolized in the liver.
Microsomes were prepared by standard techniques from four human livers. […] Three sets of enantiomers, CT2408 R&S, CT2410 R&S, and CT2412 R&S, were evaluated for inhibition of caffeine metabolism to paraxanthine by P-450.
Briefly, the inventive compounds were preincubated in microsomes with NADPH at concentrations of 100 μM for 0, 5, and 20 minutes. Samples containing only buffer, LSF, or furafylline were used as controls.
At the end of the preincubation period, the samples were diluted in a solution of NADPH and caffeine. The samples then were incubated for twenty minutes. Hydroxyethyl theophylline was added as an internal standard, and the samples were analyzed for paraxanthine via HPLC. Decreased paraxanthine formation is indicative of inhibition of P-450-mediated caffeine metabolism.
Incubation conditions and analysis of paraxanthine
To 200 μL microsomal suspension (HL-124; 20 mg/mL protein, P-450 specific activity 0.24 nmol/mg protein) and 100 μL 8.0 mM NADPH (Sigma, tetrasodium salt) in 100 mM phosphate buffer pH 7.4 preincubated for 2 minutes at 37° were added 100 μL of test compound solution (400 μM) in phosphate buffer ([…], pH 7.4). The solution then was incubated at 37° with agitation for 0, 5, and 20 minutes at which times 100 μL of the solution was transferred to another tube containing 200 μL 12.5 mM caffeine and 200 μL 5.0 mM NADPH which had been warmed at 37° for 2 minutes. The suspensions then were incubated for 20 minutes, 200 μL acetonitrile added, and the tubes placed on ice.
After all incubations were finished, 50 μL β-hydroxyethyl theophylline (50 μg/mL, HET) was added as an internal standard. Paraxanthine standards were prepared in 0.5 mL phosphate buffer containing 2.0 mg boiled microsomal protein ranging in concentration from 0.433 to 13.9 nmol/sample.
The suspensions then were extracted for 5 minutes with 7.0 mL methylene chloride (Fisher Optima grade), centrifuged at 3,000 g and the aqueous layer aspirated to waste. An aliquot of the organic (5.5 mL) was then transferred to another tube, evaporated to dryness under nitrogen at 30°, and reconstituted in 20% methanol/water.
Thirty microliters of reconstituted sample were then applied to an Hewlett Packard 1050 HPLC system equipped with a Rainin Microsorb™ 4.6×100 mm column with 3 μm C-18 packing. Mobile phase was maintained at 1.0 mL/min and changed from 2:13:85 to 2:20:78 acetonitrile:methanol:25 mM phosphate buffer, pH 5 over 10 minutes, the column was then washed by increasing the acetonitrile to 20% prior to re-equilibration for the next injection. Column eluent was monitored at 285 nm and paraxanthine, HET, and caffeine respectively eluted at 5.3, 6.6, and 9.8 minutes.

[2] = system: P-450IA2; conditions: liver; Sesardic et al.; cited from earlier work
[3] = system: caffeine metabolism; conditions: cited from earlier work
[4] = system: LSF metabolism; test: Co-administration of furafylline with LSF: circulating half-life of LSF; type: in vivo; conditions: co-administered with LSF
[5] = system: P-450IA2; conditions: Lillibridge et al.; cited from earlier work
[6] = human, in vivo; cited from earlier work

| activity at 0 h, 100 µM ([1]; liver microsomes) | activity at 5 min, 100 µM ([1]; liver microsomes) | activity at 20 min, 100 µM ([1]; liver microsomes) | Compound | further results |
| --- | --- | --- | --- | --- |
| 95.2% | 73.9% | 46.6% | Cc1nc2c([nH]1)c(=O)n(CCCC[C@@H](C)O)c(=O)n2C [CT2408R, (R)-1-(5-Hydroxyhexyl)-3,8-dimethylxanthine] | – |
| 101% | 91% | 83.5% | Cc1nc2c(c(=O)n(CCCC[C@H](C)O)c(=O)n2C)n1C [CT2410S, 1-(5-Hydroxyhexyl)-3,7,8-trimethylxanthine] | – |
| 101% | 82.8% | 56.3% | Cc1nc2c([nH]1)c(=O)n(CCCC[C@@H](C)O)c(=O)n2Cc1ccco1 [CT2412R, (R)-3-(2-Furylmethyl)-1-(5-hydroxyhexyl)-8-methylxanthine] | – |
| 98.7% | 75.6% | 51.7% | Cc1nc2c([nH]1)c(=O)n(CCCC[C@H](C)O)c(=O)n2Cc1ccco1 [CT2412S, (S)-3-(2-Furylmethyl)-1-(5-hydroxyhexyl)-8-methylxanthine] | – |

The next lines start with the compound.

| Compound | activity at 0 h, 100 µM ([1]; liver microsomes) | activity at 5 min, 100 µM ([1]; liver microsomes) | activity at 20 min, 100 µM ([1]; liver microsomes) | further results |
| --- | --- | --- | --- | --- |
| Cc1nc2c([nH]1)c(=O)n(CCCCC(C)O)c(=O)n2C (stereo not drawn) [CT2408 R&S, 1-(5-Hydroxyhexyl)-3,8-dimethylxanthine] | – | – | – | inhibition of P-450-mediated caffeine metabolism (in words) [1]: showed similar inhibition |
| Cc1nc2c([nH]1)c(=O)n(CCCC[C@H](C)O)c(=O)n2C [CT2408S, (S)-1-(5-Hydroxyhexyl)-3,8-dimethylxanthine] | 97.2% | 71% | 41.8% | – |
| Cc1nc2c(c(=O)n(CCCCC(C)O)c(=O)n2C)n1C (stereo not drawn) [CT2410, 1-(5-Hydroxyhexyl)-3,7,8-trimethylxanthine] | – | – | – | inhibition of P-450-mediated caffeine metabolism (in words) [1]: Neither CT2410 (1-(5-Hydroxyhexyl)-3,7,8-trimethylxanthine) nor LSF ((R)-1-(5-Hydroxyhexyl)-3,7-dimethylxanthine) had any inhibitory effect |
| Cc1nc2c(c(=O)n(CCCC[C@@H](C)O)c(=O)n2C)n1C [CT2410R, 1-(5-Hydroxyhexyl)-3,7,8-trimethylxanthine] | 92.8% | 87.8% | 88.3% | – |
| Cc1nc2c([nH]1)c(=O)n(CCCCC(C)O)c(=O)n2Cc1ccco1 (stereo not drawn) [CT2412 R&S, 3-(2-furylmethyl)-1-(5-hydroxyhexyl)-8-methylxanthine] | – | – | – | inhibition of P-450-mediated caffeine metabolism (in words) [1]: showed similar inhibition |
| Cc1nc2c([nH]1)c(=O)n(C)c(=O)n2Cc1ccco1 [FRF, 1,8-dimethyl-3-(2'furfuryl)-methylxanthine] | – | – | – | inhibition of P-450IA2 / N3 demethylation of caffeine [2]: inhibiting the P-450 isozyme, P-450IA2, which catalyzes N3 demethylation of caffeine in the liver; circulating half-life of caffeine ([3]; by inhibiting N3 demethylation): increases the circulating half-life of caffeine; serum caffeine levels in patients treated ([3]; clinical trials, Tarrus et al.): elevated serum caffeine levels; circulating half-life of LSF on co-administration [4]: increase the circulating half-life of the methylxanthine compound LSF; activity at 0 h, 100 µM ([1]; microsomes): 36.8%; activity at 5 min, 100 µM ([1]; microsomes): 13.9%; activity at 20 min, 100 µM ([1]; microsomes): 10.1% |
| C[C@@H](O)CCCCn1c(=O)c2c(ncn2C)n(C)c1=O [LSF, (R)-1-(5-Hydroxyhexyl)-3,7-dimethylxanthine, reference compound] | 101% | 91% | 85.8% | site of metabolism [5]: primary metabolites of LSF and PTX result from modification of the N1 substituent, not the N3 substituent; inhibition of P-450-mediated caffeine metabolism (in words) [1]: Neither CT2410 (1-(5-Hydroxyhexyl)-3,7,8-trimethylxanthine) nor LSF ((R)-1-(5-Hydroxyhexyl)-3,7-dimethylxanthine) had any inhibitory effect |
| CC(=O)CCCCn1c(=O)c2c(ncn2C)n(C)c1=O [PTX] | – | – | – | site of metabolism [5]: primary metabolites of LSF and PTX result from modification of the N1 substituent, not the N3 substituent |
| CC(C(=O)O)c1ccc2oc(-c3ccc(Cl)cc3)nc2c1 (stereo not drawn) [benoxaprofen] | – | – | – | toxic / side effects [6]: lethal side effects |
| Cn1c(=O)c2c(ncn2C)n(C)c1=O [caffeine, 1,3,7-trimethylxanthine] | – | – | – | site of metabolism [5]: P-450IA2 mediates demethylation of caffeine at the N3 position of the xanthine ring |
| CC[C@H](CO)NCCN[C@H](CC)CO [ethambutol R,R-enantiomer] | – | – | – | toxic / side effects [6]: can cause blindness |
| O=C1CC[C@@H](N2C(=O)c3ccccc3C2=O)C(=O)N1 [thalidomide R-isomer] | – | – | – | sedative activity [6]: desired sedative activity resided in the R-isomer |
| O=C1CC[C@H](N2C(=O)c3ccccc3C2=O)C(=O)N1 [thalidomide S-isomer] | – | – | – | toxic / side effects [6]: teratogen, causing the birth defects in babies born to mothers using this drug |
